Assay results as given in patent US5997843A, “Radiometal complexes that localise in hypoxic tissue” (priority 1993, dated 1999).

Legend:
Biodistribution in rats = type: in vivo, male rats; details: i.v.
Procedure: Biodistribution in Rats--Methods
The quantitative biodistribution was studied in male rats at 2 minutes, 1 hour and 4 hours post-injection
Rats under light anaesthesia were injected intravenously with 0.1 ml of test agent. Three rats were sacrificed (anaesthesia followed by exsanguination) at 2, 60 and 240 minutes, post-injection. The percentage of the injected dose in the excreta and organs and tissues was determined by dissection and assay for radioactivity in an automatic gamma counter.

[1] = system: isolated (Langendorff) rat hearts; experiment: Isolated perfused heart (Langendorff), hypoxic vs oxic uptake/retention; details: for Hypoxic/Oxic Ratio (H/O): ^99m Tc complex (or ^123 I-IAZA), 20 min infusion, 15 min washout; for Normalised Hypoxic Retention: relative to ^3 H-misonidazole activity
Procedure: A 15-minute cold buffer washout period follows. y activity in the heart is monitored using a collimated NaI probe detector positioned over the heart.
Activity in hearts, relative to perfusate activity, is calculated for each nuclide and data evaluated for each compound for activity in hypoxic and oxic hearts (hypoxic:oxic ratio) and also relative to the 3 H-misonidazole activity (normalised retention) using Formula 1. [formula] Results

[2] = 2 min post-injection, ^99m Tc complex
[3] = 240 min post-injection (third printed value)
[4] = second of two values, 60 or 240 min not assignable

Compound	Bladder/Urine (Biodistribution in rats; 2 min post-injection)	Blood (Biodistribution in rats; 2 min post-injection)	Gut (Biodistribution in rats; 2 min post-injection)	Kidney (Biodistribution in rats; 2 min post-injection)	Liver (Biodistribution in rats; 2 min post-injection)	Muscle (Biodistribution in rats; [2])	Gut (Biodistribution in rats; 60 min post-injection)	Muscle (Biodistribution in rats; 60 min post-injection)	Muscle (Biodistribution in rats; [3])	Gut (Biodistribution in rats; 240 min post-injection)	Blood (Biodistribution in rats; [4])	Kidney (Biodistribution in rats; [4])	Liver (Biodistribution in rats; [4])	Hypoxic/Oxic Ratio (H/O) [1]	Normalised Hypoxic Retention [1]	hypoxia selectivity / hypoxic/oxic ratio / hypoxic retention (in words) [1]
CC(=NO)C(C)(C)NCCCCCNC(C)(C)C(C)=NO [Compound III, 4,10-diaza-3,3,11,11-tetramethyltridecan-2,12-dione dioxime]	0.2 percent injected dose	18.1 percent injected dose	8.2 percent injected dose	11.3 percent injected dose	9.7 percent injected dose	26.9 percent injected dose	25.0 percent injected dose	10.1 percent injected dose	3.3 percent injected dose	35.6 percent injected dose	1.1 percent injected dose	4.2 percent injected dose	5.4 percent injected dose			
CCC(=NO)C(C)(C)NCCCCNC(C)(C)C(C)=NO [Compound IX, 4,9-diaza-3,3,10,10-tetramethyltridecan-2,11-dione dioxime]	0.8 percent injected dose	10.1 percent injected dose	13.8 percent injected dose	7.7 percent injected dose	12.9 percent injected dose	32.1 percent injected dose	31.6 percent injected dose	8.3 percent injected dose	3.0 percent injected dose	37.7 percent injected dose	2.0 percent injected dose	2.2 percent injected dose	11.2 percent injected dose	8.4	2.1	
CC(C)(C=NO)NCCCCNC(C)(C)C=NO [Compound VI, 3,8-diaza-2,2,9,9-tetramethyldecan-1,10-dial dioxime]	0.6 percent injected dose	13.5 percent injected dose	8.6 percent injected dose	12.5 percent injected dose	12.2 percent injected dose	24.8 percent injected dose	16.3 percent injected dose	13.4 percent injected dose	10.0 percent injected dose	21.2 percent injected dose	5.3 percent injected dose	10.4 percent injected dose	13.7 percent injected dose	3.2	0.67	
CCC(=NO)C(C)(C)NCCCCNC(C)(C)C=NO [Compound VII, 3,8-diaza-10-(hydroxyimino)-2,2,9,9-tetramethyl dodecanal oxime]	0.8 percent injected dose	11.8 percent injected dose	12.1 percent injected dose	9.8 percent injected dose	12.9 percent injected dose	25.6 percent injected dose	23.2 percent injected dose	9.2 percent injected dose	7.5 percent injected dose	31.3 percent injected dose	3.0 percent injected dose	3.4 percent injected dose	11.6 percent injected dose	8.8	1.5	
CCC(=NO)C(C)(C)NCCCCNC(C)(C)C(CC)=NO [Compound VIII, 5,10-diaza-4,4,11,11-tetramethyltetradecan-3,12-dione dioxime]	0.6 percent injected dose	9.0 percent injected dose	13.9 percent injected dose	7.8 percent injected dose	13.6 percent injected dose	29.7 percent injected dose	36.2 percent injected dose	7.4 percent injected dose	2.4 percent injected dose	46.7 percent injected dose	1.8 percent injected dose	2.5 percent injected dose	13.1 percent injected dose	34	2.2	
CC(C)(NCCCCNC(C)(C)C(Cn1ccnc1[N+](=O)[O-])=NO)C(Cn1ccnc1[N+](=O)[O-])=NO [Compound XI, 1,12-bis(2-Nitro-1-imidazolyl)-4,9-diaza-3,3,10,10-tetramethyldodecan-2,11-dione dioxime]	0.2 percent injected dose	10.8 percent injected dose	18.2 percent injected dose	8.6 percent injected dose	21.7 percent injected dose	18.7 percent injected dose	56.7 percent injected dose	5.6 percent injected dose	3.1 percent injected dose	66.0 percent injected dose	1.4 percent injected dose	2.1 percent injected dose	7.3 percent injected dose	3.4	0.98	further reduces the hypoxia selectivity
CC(C)(C=NO)NCCCCNC(C)(C)C(Cn1ccnc1[N+](=O)[O-])=NO [Compound XII, 3,8-diaza-10-hydroxyimino-11-(2-nitro-1-imidazolyl)-2,2,9,9-tetramethylundecanal oxime]	1.2 percent injected dose	10.8 percent injected dose	13.4 percent injected dose	13.3 percent injected dose	16.0 percent injected dose	23.9 percent injected dose	31.9 percent injected dose	8.2 percent injected dose	5.2 percent injected dose	35.5 percent injected dose	2.0 percent injected dose	5.5 percent injected dose	11.0 percent injected dose	9.5	1.9	little or no effect on both the hypoxic/oxic ratio and normalised hypoxic retention
CC(=NO)C(C)NCCCCNC(C)C(C)=NO (stereo not drawn) [Compound XIII, 4,9-Diaza-3,10-dimethyldodecan-2,11-dione dioxime]	1.1 percent injected dose	9.8 percent injected dose	11.4 percent injected dose	8.8 percent injected dose	18.4 percent injected dose	25.7 percent injected dose	23.0 percent injected dose	10.1 percent injected dose	7.1 percent injected dose	25.6 percent injected dose	5.0 percent injected dose	8.8 percent injected dose	20.4 percent injected dose			
COCC(=NO)C(C)(COC)NCCCCNC(C)(COC)C(COC)=NO (stereo not drawn) [Compound XV, 3,10-Bis(methoxymethyl)-4,9-diaza-1,12-dimethoxy-3,10-dimethyldodecan-2,11-dione dioxime]	1.2 percent injected dose	12.8 percent injected dose	9.5 percent injected dose	14.2 percent injected dose	10.2 percent injected dose	27.4 percent injected dose	21.3 percent injected dose	5.7 percent injected dose	1.9 percent injected dose	32.1 percent injected dose	1.7 percent injected dose	6.2 percent injected dose	6.3 percent injected dose	1.2	1.4	
COC(=O)C(CCCNC(C)(C)C(C)=NO)NC(C)(C)C(C)=NO (stereo not drawn) [Compound XVI, 4,9-diaza-3,3,10,10-tetramethyldodecan-2,11-dione dioxime-8-carboxylic acid methyl ester]	0.3 percent injected dose	17.8 percent injected dose	6.3 percent injected dose	13.8 percent injected dose	4.4 percent injected dose	24.4 percent injected dose	6.5 percent injected dose	3.7 percent injected dose	2.3 percent injected dose	12.4 percent injected dose	3.1 percent injected dose	7.6 percent injected dose	2.5 percent injected dose	4.0	0.22	
O=[N+]([O-])c1nccn1[C@H]1O[C@H](C[123I])[C@@H](O)[C@@H]1O [^123 I-IAZA, ^123 I-iodoazomycin arabinoside, reference compound]														10	2.7	
